Laboratory results taken from patent US20110236886A1, “PATHOGENICITY DETERMINANTS WHICH CAN BE USED AS TARGETS FOR DEVELOPING MEANS FOR PREVENTING AND CONTROLLING BACTERIAL INFECTIONS AND/OR SYSTEMIC DISSEMINATION” (priority 2002, published 2011).

Columns and labels:
[1] = system: S. agalactiae NEM316; experiment: Disk diffusion sensitivity to cationic antimicrobial peptides, wild type strain; type: cell-based, Streptococcus agalactiae; details: blood agar plates, 18 hours at 37° C., disc content colistin 50 μg, polymixin B 10 μg
Procedure: (§1) The sensitivity of wild type S. agalactiae NEM316 and DltD mutant to cationic antimicrobial peptides was measured by using a disk diffusion methods. The 2 strains were grown on blood agar plates and incubated for 18 hours at 37° C. Each strain was tested using colistin (50 μg) and polymixin (10 μg) disks. Sensitivity or resistance of NEM316 strain and the DltD mutant to each compound was determined by the size of the growth inhibition area around disk.

[2] = system: DltD mutant of S. agalactiae NEM316; experiment: Disk diffusion sensitivity to cationic antimicrobial peptides, DltD mutant; type: cell-based, Streptococcus agalactiae; details: for Inhibition area (mm) Mutant DltD: blood agar plates, 18 hours at 37° C., disc content colistin 50 μg, polymixin B 10 μg; for Sensitivity of the DltD mutant to the peptide compared with wild type: result in words
Procedure: as §1

Row | Substance | Inhibition area (mm) NEM316 [1] [mm] | Inhibition area (mm) Mutant DltD [2] [mm] | Sensitivity of the DltD mutant to the peptide compared with wild type [2]
1 | colistin | 0 | 14 | increased sensitivity
2 | polymyxin B [Polymixin B] | 0 | 14 | increased sensitivity
